Drawing on patent US10654819B2, “Processes for the preparation of 2,5-furandicarboxylic acid and intermediates and derivatives thereof” (Stora Enso Oyj, priority 2016, dated 2020), this text covers FDCA solubility for one molecule.

Data set [1] can be described thus: FDCA solubility characterization in candidate solvents (Example 1). In kind it is physicochemical. The procedure: Solvents were screened for the ability to dissolve FDCA. 10 ml of a candidate solvent was heated to a certain temperature and FDCA (Product No. F0710, TCI America) was added by small portions to the heated candidate solvent until the FDCA amount exceeded the solubility limit. After that, small volumes of solvent were added until the excess solids were completely dissolved. The experiment was repeated two times at each temperature and the average was taken as FDCA solubility. Five solvents were tested: (1) deionized water; (2) diglyme; (3) dioxane; (4) a 1:1 by volume mixture of diglyme with deionized water; and (5) a 4:1 by volume mixture of dioxane with deionized water. The results are depicted in FIG. 3 as a plot of FDCA Solubility (Weight %) as a function of temperature (° C.). […] However, when each of the organic solvents was combined with water, the resulting co-solvent appeared to provide a synergistic enhancement in FDCA solubilizing capability. […] Similarly, at 100° C., although FDCA solubility in water and dioxane individually was less than 1% (by weight) and less than 2% (by weight), respectively, the FDCA solubility trend line for the co-solvent system of 1:4 ratio of deionized water:dioxane, by volume, indicates 9% (by weight) FDCA solubility.

Data set [2] can be described thus: FDCA solubility studies in various solvent compositions, visual inspection of dissolution (Example 23). The data set is classed as physicochemical. The procedure:
A series of samples containing various amounts of FDCA and mixed solvent compositions were prepared in sealed pressure ampules (typically containing 2-5 g material (FDCA and solvent composition)). For example, 200 mg FDCA, 900 mg NMP, and 900 mg de-ionized water were added to an 8 mL glass vial with a stir bar inside, corresponding to a mixture containing 10 wt % FDCA. Other samples corresponding to different wt % FDCA samples in various mixed solvent compositions were prepared in a similar manner. […] The reported FDCA solubility in Table 11 represents the maximum wt % FDCA that can be dissolved in the given solvent composition using this testing method.

For `O=C(O)c1ccc(C(=O)O)o1` [FDCA, 2,5-furandicarboxylic acid], the FDCA solubility in data set [1] (in 1:1 deionized water:diglyme by volume, 100° C.) is reported as 9 % (by weight); in data set [1] (in 1:4 deionized water:dioxane by volume, 100° C., from trend line), 9 % (by weight); in data set [1] (in diglyme, 22° C. to 100° C.), “less than 2 % by weight”; in data set [1] (in diglyme, 100° C.) it was “less than 2 % (by weight)”; in data set [1] (in dioxane, 22° C. to 100° C.) it was “less than 2 % by weight”; in data set [1] (in dioxane, 100° C.), “less than 2 % (by weight)”. For the same molecule, the FDCA solubility entry in data set [1] (in water, 22° C. to 140° C.) is listed as “less than 2 % by weight”; in data set [1] (in water, 100° C.), “less than 1 % (by weight)”; in data set [2] (Bu^tOH 50 wt. % / H2O 50 wt. %, 100 ° C.), 7.0 wt. %; in data set [2] (Bu^tOH 75 wt. % / H2O 25 wt. %, 100 ° C.), 7.5 wt. %; in data set [2] (MEK 25 wt. % / H2O 75 wt. %, 100 ° C.), 5.5 wt. %; in data set [2] (MEK 90 wt. % / H2O 10 wt. %, 100 ° C.), 4.0 wt. %. For the same molecule, the FDCA solubility in data set [2] (NMP 20 wt. % / H2O 80 wt. %, 23 ° C.) is recorded as 0.3 wt. %; in data set [2] (NMP 20 wt. % / H2O 80 wt. %, 100 ° C.), 4.0 wt. %; in data set [2] (NMP 20 wt. % / H2O 80 wt. %, 120 ° C.), 7.5 wt. %; in data set [2] (NMP 35 wt. % / H2O 65 wt. %, 23 ° C.), 0.5 wt. %; in data set [2] (NMP 35 wt. % / H2O 65 wt. %, 100 ° C.), 9.0 wt. %; in data set [2] (NMP 35 wt. % / H2O 65 wt. %, 120 ° C.), 13.5 wt. %. In addition, the FDCA solubility is on record as 14.5 wt. % in data set [2] (NMP 50 wt. % / H2O 50 wt. %, 100 ° C.); 19.5 wt. % in data set [2] (NMP 50 wt. % / H2O 50 wt. %, 120 ° C.); 4.0 wt. % in data set [2] (gamma-valerolactone 25 wt. % / H2O 75 wt. %, 100 ° C.); 7.0 wt. % in data set [2] (gamma-valerolactone 50 wt. % / H2O 50 wt. %, 100 ° C.); 6.5 wt. % in data set [2] (gamma-valerolactone 75 wt. % / H2O 25 wt. %, 100 ° C.).
